Tests used:
Triticum aestivum [1] = assay: Pre-emergence herbicidal activity against Triticum aestivum L. (wheat) assessed change in leaf length; format: functional; parameters: concentration or dose not given beside the values
Triticum aestivum [2] = assay: Pre-emergence herbicidal activity against Triticum aestivum L. (wheat) assessed change in aerial weight; format: functional; parameters: concentration or dose not given beside the values
Triticum aestivum [3] = assay: Pre-emergence herbicidal activity against Triticum aestivum L. (wheat) assessed change in radicular weight; format: functional; parameters: concentration or dose not given beside the values
[4] = Retention factor, logKw of the compound in pure aqueous mobile phases by RP-HPLC method; format: physicochemical; conditions: buffer

| Structure (SMILES) | Activity (Triticum aestivum [1]) [%] | Activity (Triticum aestivum [2]) [%] | Activity (Triticum aestivum [3]) [%] | logKw [4] |
| --- | --- | --- | --- | --- |
| O=C(Nc1ccc(Cl)cc1)c1ccc2c(c1)no[n+]2[O-] | -1.43 | -50 | -73 |  |
| Cc1c(C=O)no[n+]1[O-] | -1.62 | -5 | -5 | 0.22 |
| COCCNC(=O)N/N=C\c1ccc2c(c1)no[n+]2[O-] | -1.1 |  |  | 2.31 |
| O=Cc1c(-c2ccccc2)no[n+]1[O-] | -1.2 | -4 | 18 |  |
| COC(=O)N/N=C/c1ccc2nonc2c1 |  | 35 | 20 | 2.21 |
| O=C(O)c1ccc2c(c1)no[n+]2[O-] |  | -16 | -9 |  |
| Cc1c(/C=N/NC(N)=S)no[n+]1[O-] |  |  | -95 | 1.18 |
| COCCNC(=O)c1ccc2c(c1)no[n+]2[O-] | -1.54 | -23 | -2 | 1.46 |
| [O-][n+]1onc(-c2ccccc2)c1CN1CCN(c2ncccn2)CC1 | -1.22 | 0 | 0 |  |
| COC(=O)N/N=C/c1c(-c2ccccc2)no[n+]1[O-] | -1.19 | -22 | 16 | 3.34 |
| Cc1ccc2c(c1)no[n+]2[O-] | -2 | -58 | -58 | 2.18 |
| [O-][n+]1onc(-c2ccccc2)c1CCl | -0.99 | -4 | -7 | 4.24 |
| O=C(c1ccc2c(c1)no[n+]2[O-])N1CCOCC1 | -2.06 | -55 | -52 | 1.27 |
| COC(=O)N/N=C/c1no[n+]([O-])c1C | -2.08 | -50 | -50 | 1.47 |
| COC(=O)N/N=C\c1ccc2c(c1)no[n+]2[O-] | -1.17 | -6 | 13 | 2.02 |
| O=Cc1ccc2c(c1)no[n+]2[O-] | -0.93 | -30 | -5 | 2.4 |
| NC(=S)N/N=C/c1c(-c2ccccc2)no[n+]1[O-] | -1.03 | -30 | 8 | 3.24 |
| Cc1c(/C=N/NC(=O)NC2CCCCC2)no[n+]1[O-] | -1.59 | -50 | -85 | 4.39 |
| CCCCNC(=O)c1ccc2c(c1)no[n+]2[O-] | -1.54 | -71 | -66 | 2.74 |
